In ChEMBL document CHEMBL1145307, “Design and synthesis of tetracyclic nonpeptidic biaryl nitrile inhibitors of cathepsin K” (Bioorg Med Chem Lett, 2006):

What was measured:
[1] = biological target: T1, Cathepsin K (Homo sapiens, UniProt P43235); assay: Inhibition of human cathepsin K
T1 sequence (P43235 whole entry): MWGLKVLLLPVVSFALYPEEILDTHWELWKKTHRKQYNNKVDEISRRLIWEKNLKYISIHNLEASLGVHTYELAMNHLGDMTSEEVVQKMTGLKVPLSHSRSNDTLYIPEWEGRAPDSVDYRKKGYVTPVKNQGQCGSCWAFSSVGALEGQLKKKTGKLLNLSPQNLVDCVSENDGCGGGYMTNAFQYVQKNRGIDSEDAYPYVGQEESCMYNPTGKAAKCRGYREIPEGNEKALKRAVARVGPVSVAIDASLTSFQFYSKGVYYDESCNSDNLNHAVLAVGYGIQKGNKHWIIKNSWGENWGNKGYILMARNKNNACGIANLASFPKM

[2] = Mean residence time in rat at 0.5 mg/kg, iv; type: ADME, organism-based; parameters: dose 0.5 mg/kg, route intravenous; conditions: in vivo
[3] = Clearance in rat at 0.5 mg/kg, iv; type: ADME, organism-based; parameters: dose 0.5 mg/kg, route intravenous; conditions: in vivo
[4] = Volume of distribution in rat at 0.5 mg/kg, iv; type: ADME, organism-based; parameters: dose 0.5 mg/kg, route intravenous; conditions: in vivo, read-out: Vss
[5] = biological target: Procathepsin L (Homo sapiens, UniProt P07711); assay: Inhibition of human cathepsin L
Chain of Procathepsin L (P07711 whole entry): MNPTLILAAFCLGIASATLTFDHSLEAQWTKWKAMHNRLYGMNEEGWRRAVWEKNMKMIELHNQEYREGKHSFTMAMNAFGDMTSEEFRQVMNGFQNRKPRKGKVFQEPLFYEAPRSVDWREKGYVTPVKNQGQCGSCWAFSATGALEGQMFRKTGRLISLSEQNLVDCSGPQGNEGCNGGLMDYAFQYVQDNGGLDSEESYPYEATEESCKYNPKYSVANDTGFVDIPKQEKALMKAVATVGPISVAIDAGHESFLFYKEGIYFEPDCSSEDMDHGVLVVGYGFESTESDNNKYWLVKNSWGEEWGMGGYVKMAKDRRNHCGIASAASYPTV

[6] = biological target: Cathepsin B (Homo sapiens, UniProt P07858); assay: Inhibition of human cathepsin B
[7] = biological target: Cathepsin S (Homo sapiens, UniProt P25774); assay: Inhibition of human cathepsin S
Chain of Cathepsin S (P25774 whole entry): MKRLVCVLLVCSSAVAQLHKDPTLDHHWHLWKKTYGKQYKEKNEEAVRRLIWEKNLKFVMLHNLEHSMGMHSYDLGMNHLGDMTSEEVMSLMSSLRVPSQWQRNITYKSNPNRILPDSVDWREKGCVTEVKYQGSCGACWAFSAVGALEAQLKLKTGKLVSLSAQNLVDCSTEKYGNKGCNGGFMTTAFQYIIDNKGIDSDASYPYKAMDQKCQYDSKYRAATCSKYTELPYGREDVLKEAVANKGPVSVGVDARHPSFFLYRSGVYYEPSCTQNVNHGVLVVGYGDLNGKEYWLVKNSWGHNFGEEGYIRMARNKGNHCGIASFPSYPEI

[8] = system: Osteoclast; assay: Effect on degradation of bovine bone by rabbit osteoclast; type: functional, cell-based; conditions: Oryctolagus cuniculus
[9] = biological target: Cathepsin (L and K) (Homo sapiens) (UniProt P43235+P07711); assay: Selectivity for cathepsin L over cathepsin K; type: protein assay
[10] = biological target: Cathepsin (B and K) (Homo sapiens) (UniProt P43235+P07858); assay: Selectivity for cathepsin B over cathepsin K; type: protein assay
[11] = biological target: Cathepsin (S and K) (Homo sapiens) (UniProt P25774+P43235); assay: Selectivity for cathepsin S over cathepsin K; type: protein assay
[12] = system: Rattus norvegicus; assay: Cmax in rat at 10 mg/kg, po; type: ADME, organism-based; parameters: dose 10 mg/kg, route oral; conditions: in vivo
[13] = system: Rattus norvegicus; assay: Tmax in rat at 10 mg/kg, po; type: ADME, organism-based; parameters: dose 10 mg/kg, route oral; conditions: in vivo
[14] = system: Rattus norvegicus; assay: AUC in rat at 10 mg/kg, po; type: ADME, organism-based, Plasma; parameters: dose 10 mg/kg, route oral; conditions: in vivo
[15] = system: Rattus norvegicus; assay: Half life in rat at 10 mg/kg, po; type: ADME, organism-based; parameters: dose 10 mg/kg, route oral; conditions: in vivo
[16] = Oral bioavailability in rat at 10 mg/kg, po; type: ADME, organism-based; conditions: in vivo

Ki [1] [nM]	MRT [2] [h]	clearance [3] [mL/min/kg]	Vd [4] [L/kg]	Ki [5] [nM]	Ki [6] [µM]	Ki [7] [µM]	IC50 [8] [nM]	Selectivity ratio [9]	Selectivity ratio [10]	Selectivity ratio [11]	Cmax [12] [nM]	Tmax [13] [min]	AUC [14] [µM·min]	T1/2 [15] [h]	bioavailability [16] [%]	SMILES
1.3	1.82	60	6.6	360	37	5.6	28	276	28500	4310	–	–	–	–	–	CC(C)C[C@@H](C(=O)NCC#N)c1cccc(-c2cccc(-c3csc(N4CCN(C(C)(C)C)CC4)n3)c2)c1
0.8	2.93	25	4.3	190	18	5.6	349	237	22500	7000	1100	200	560	3.9	85	CC(C)CC(C(=O)NCC#N)c1cccc(-c2cccc(-c3csc(N4CCNCC4)n3)c2)c1 (racemic)
3.5	1.77	114	12	2500	12	9.5	12	714	3430	2710	–	–	–	–	–	CC(C)CC(C(=O)NCC#N)c1cccc(-c2ccc(-c3csc(N4CCNCC4)n3)cc2)c1 (racemic)
3	–	–	–	540	51	3.6	172	180	17000	1200	–	–	–	–	–	CC(C)C[C@@H](C(=O)NCC#N)c1cccc(-c2cccc(-c3csc(N4CCC(N(C)C)C4)n3)c2)c1 (some centres undefined)
4.8	2.33	65	9.1	680	51	7.4	43	141	10600	1540	–	–	–	–	–	CC(C)C[C@@H](C(=O)NCC#N)c1cccc(-c2cccc(-c3csc(CN4CCNCC4)n3)c2)c1
1.3	0.9	32	1.7	390	22	1.8	59	300	16900	1380	–	–	–	–	–	CC(C)CC(C(=O)NCC#N)c1cccc(-c2cccc(-c3csc(N4CCN(C)CC4)n3)c2)c1 (racemic)
8	2.58	98	14.8	4640	3.84	1.69	95	580	481	212	–	–	–	–	–	CC(C)C[C@@H](C(=O)NCC#N)c1cccc(-c2ccc(N3CCNCC3)cc2)c1
